Results from article PMC6877482, “Inhibition of AMD-Like Pathology With a Neurotrophic Compound in Aged Rats and 3xTg-AD Mice” (Frontiers in Aging Neuroscience, 2019).

Legend:
[1] = system: Iba-1; assay: Microgliosis, Iba-1 immunofluorescence in retina of 3xTg-AD mice; type: in vivo, mouse; details: female 3xTg-AD mice, 60 nmoles P021/g feed from 3 to 21 months of age
From the text: (§1) At approximately 3 months of age, the female wild type and 3xTg-AD mice were divided into five groups (n = 6–7 mice per group; Figure 3A): (1) wild type mice, age 3 months, without treatment (WT-3 m); (2) 3xTg-AD mice, age 3 months, without treatment (3xTg-3 m); (3) wild type mice, age 3 months, treated with vehicle feed without P021 until the age of 21 months (WT-21 m/Veh); (4) 3xTg-AD-mice, age 3 months, treated with vehicle feed without P021 until the age of 21 months (3xTg-21 m/Veh); and (5) 3xTg-AD-mice, age 3 months, treated with 60 nmol P021/g feed till the age of 21 months (3xTg-21 m/P021). The first two groups, WT-3 m and 3xTg-AD-3 m, were the starting points and were employed as controls to study age-associated AMD-like changes in WT-21 m and 3xTg-AD-21 m, respectively. […] Food consumption and body weight were recorded every 2 weeks and every month, respectively. […]
(§2) Paraffin sections were deparaffinized, rehydrated, and subjected to antigen retrieval by boiling for 20 min in 10 mM sodium citrate solution (pH 6.0). […] The area to be analyzed was selected, converted to grayscale, and thresholded using Yen’s arithmetic, and the area percentage of positive staining was measured for each section by using the NIH ImageJ software package. The staining area was quantified from two to three sections of each eye and averaged (n = 5–7 animals per group).

[2] = commercial service (APREDICA, Watertown, MA, USA); ref Kazim et al., 2014; cited from earlier work
[3] = system: VEGF; assay: VEGF immunofluorescence in retina and optic nerve of aged 3xTg-AD mice; type: in vivo, mouse; details: 60 nmoles P021/g feed from 3 to 21 months of age, qualitative, 2-3 animals/group
From the text: as §1, §2

[4] = system: retina of aged Fisher rats; assay: Retinal morphology (H & E, rows and thickness of ONL and INL) in aged rats; type: in vivo, rat; details: female Fisher rats ~19-21 months, 500 nmoles/kg/day by gavage for 3 months
Experimental: (§3) Female aged (19–21 months) Fisher rats (n = 7) were given P021 per os by gavage (10 ml/kg body weight) once a day for 88 days. […] To be able to deliver the same constant dose to each animal, we chose gavage. Furthermore, the administration of P021 by gavage is more economical than by drinking water. As controls, the second group of aged (19–21 months) female rats (n = 7) and a group of young adult female rats (2–3 months, n = 7) were treated identically, but with normal saline (vehicle) only (Figure 1A). Administration of vehicle and test compound was done at 7–9 AM daily and blindly to the investigators who collected, processed, and analyzed the tissue.
(§4) The animals were anesthetized by using an overdose of avertin and then were transcardially perfused by using 0.1 M phosphate-buffered saline (PBS). Eyeballs were dissected out from the carcasses, immersion-fixed for 24 h in 4% paraformaldehyde at 4°C, and then transferred to 70% alcohol for storage; in the case of mice, the eyeballs were prefixed by injecting 4% paraformaldehyde, followed by removal from the carcasses and immersion fixation as above. After the cornea and lens of the left eyes were removed, the remaining eye cup was embedded in paraffin, with the orientation parallel to the optic nerve in longitudinal position. In all cases, 5-μm serial sections were cut by using a rotary microtome and were mounted on Superfrost Plus slides. Processing and analysis of the retinal tissue were conducted blind.
(§5) Every 25th retinal section was deparaffinized and subjected to hematoxylin and eosin (H & E) staining to evaluate the morphology. The H & E staining images were captured with a light microscope using 2×, 40×, and 100× objective lenses. Because there is no significant difference between the 1/5th to the 1/3rd of the retina from the optic nerve head and the most peripheral part, we chose the 1/5th position of the retina from the optic nerve to the most peripheral part of the retina as the “central,” and the most peripheral part of the retina as “peripheral.” Rows of the outer nuclear layer (ONL) and the inner nuclear layer (INL) of the retina in each group (every 25th section, 3–5 sections per rat or mouse, n = 5–7 rats per group; n = 5–6 mice per group) were manually counted in three columns per image by using a 40× or, where necessary, a higher magnification objective. The thicknesses of the ONL and INL of the central and peripheral retina in each group (every 25th section from the optic nerve head, 2–3 sections per rat or mouse, n = 3–7 rats per group; n = 5–6 mice per group) were measured and quantified by using the ImageJ/NIH image analysis system. Processing and analysis of the retinal tissue and the data were conducted blind to the genotypes and the treatment of the animals.

[5] = system: total tau, phosphorylated tau, Aβ/APP; assay: Tau and Aβ pathologies, immunofluorescence in retina of aged rats; type: in vivo, rat; details: aged Fisher rats, 500 nmoles/kg/day by gavage for 3 months; qualitative, not quantified, 2-3 animals/group
Experimental: as §3
(§6) The animals were anesthetized by using an overdose of avertin and then were transcardially perfused by using 0.1 M phosphate-buffered saline (PBS). […]
as §2

[6] = system: GFAP; assay: Astrogliosis, GFAP immunofluorescence in retina of 3xTg-AD mice; type: in vivo, mouse; details: female 3xTg-AD mice, 60 nmoles P021/g feed from 3 to 21 months of age
From the text: (§7) At approximately 3 months of age, the female wild type and 3xTg-AD mice were divided into five groups (n = 6–7 mice per group; Figure 3A): (1) wild type mice, age 3 months, without treatment (WT-3 m); (2) 3xTg-AD mice, age 3 months, without treatment (3xTg-3 m); (3) wild type mice, age 3 months, treated with vehicle feed without P021 until the age of 21 months (WT-21 m/Veh); (4) 3xTg-AD-mice, age 3 months, treated with vehicle feed without P021 until the age of 21 months (3xTg-21 m/Veh); and (5) 3xTg-AD-mice, age 3 months, treated with 60 nmol P021/g feed till the age of 21 months (3xTg-21 m/P021). The first two groups, WT-3 m and 3xTg-AD-3 m, were the starting points and were employed as controls to study age-associated AMD-like changes in WT-21 m and 3xTg-AD-21 m, respectively. We included WT-21 m/Veh as another reference group to enable a comparison of AMD-like changes in 3xTg-21 m/Veh with age-matched WT animals. […] P021 was formulated in the feed by Research Diets (New Brunswick, NJ, USA). Food consumption and body weight were recorded every 2 weeks and every month, respectively. The average mouse food consumption was ~2.7 g feed/day. The analysis of the animals was carried out blind to the treatment.
as §6, §2

[7] = method not given, block ends with ref Kazim et al., 2014, cited from earlier work
Experimental: P021 is quite stable in artificial gastric juice (~90% for 30 min) and in artificial intestinal juice (>95% for 120 min).

[8] = system: Iba-1; assay: Microgliosis, Iba-1 immunofluorescence in retina of aged rats; type: in vivo, rat; details: female Fisher rats ~19-21 months, 500 nmoles/kg/day by gavage for 3 months
Experimental: as §3, §6, §2

[9] = system: GFAP; assay: Astrogliosis, GFAP immunofluorescence in retina of aged rats; type: in vivo, rat; details: female Fisher rats ~19-21 months, 500 nmoles/kg/day by gavage for 3 months; n = 6-7 rats; vs 22-24 m/Veh
Experimental: as §3, §6, §2

[10] = system: total tau, phosphorylated tau, Aβ/APP; assay: Tau and Aβ pathologies, immunofluorescence in retina of aged 3xTg-AD mice; type: in vivo, mouse; details: 60 nmoles P021/g feed from 3 to 21 months of age, qualitative, not quantified, 2-3 animals/group
From the text: as §1, §2

[11] = system: aged rats and mice; details: chronic oral treatment in aged rats and mice, earlier study; ref Kazim et al., 2014; cited from earlier work
From the text: At as early as 12 months of age, OXYS rats and Wistar rats are known to show AMD-like pathology, such as BM thickening and lipofuscin accumulation (Neroev et al., [2008]; Markovets et al., [2011]). […] Here, to assess the AMD-like retinal pathology induced by aging and to study the effect of P021 on the p ...

[12] = system: RPE and BM of 3xTg-AD mice; assay: RPE and BM pathology (H & E, auto-fluorescence deposits) in aged 3xTg-AD mice; type: in vivo, mouse; details: female 3xTg-AD mice, 60 nmoles P021/g feed from 3 to 21 months of age
From the text: as §1
Every 25th retinal section was deparaffinized and subjected to hematoxylin and eosin (H & E) staining to evaluate the morphology. […] The thicknesses of the ONL and INL of the central and peripheral retina in each group (every 25th section from the optic nerve head, 2–3 sections per rat or mouse, n = 3–7 rats per group; n = 5–6 mice per group) were measured and quantified by using the ImageJ/NIH image analysis system. […]

[13] = system: retina of 3xTg-AD mice; assay: Retinal morphology (H & E, rows and thickness of ONL and INL) in aged 3xTg-AD mice; type: in vivo, mouse; details: female 3xTg-AD mice, 60 nmoles P021/g feed from 3 to 21 months of age
From the text: as §7, §4, §5

[14] = system: RPE of aged Fisher rats; assay: RPE and BM pathology (H & E, auto-fluorescence deposits) in aged rats; type: in vivo, rat; details: female Fisher rats ~19-21 months, 500 nmoles/kg/day by gavage for 3 months
Experimental: as §3, §6
Every 25th retinal section was deparaffinized and subjected to hematoxylin and eosin (H & E) staining to evaluate the morphology. […] Because there is no significant difference between the 1/5th to the 1/3rd of the retina from the optic nerve head and the most peripheral part, we chose the 1/5th position of the retina from the optic nerve to the most peripheral part of the retina as the “central,” and the most peripheral part of the retina as “peripheral.” Rows of the outer nuclear layer (ONL) and the inner nuclear layer (INL) of the retina in each group (every 25th section, 3–5 sections per rat or mouse, n = 5–7 rats per group; n = 5–6 mice per group) were manually counted in three columns per image by using a 40× or, where necessary, a higher magnification objective. The thicknesses of the ONL and INL of the central and peripheral retina in each group (every 25th section from the optic nerve head, 2–3 sections per rat or mouse, n = 3–7 rats per group; n = 5–6 mice per group) were measured and quantified by using the ImageJ/NIH image analysis system. […]

In the case of Ac-DGGL^AG-NH2 [P021], the “distribution of Iba-1-positive staining in the central retina” value [1] is given as “only observed in the GCL”, the “area percentage of Iba-1 immunostaining in the peripheral retina” value ([1]; NFL to ONL, n = 3-6 mice, vs 3xTg-21 m/Veh) is given as “decreased in 3xTg-21 m/P021 mice to the levels in WT-3 m/Veh and 3xTg-3 m/Veh mice” and the BBB crossing [2] is given as “a sufficient amount of P021 crossed the BBB”. For the same substance, the “VEGF staining in the optic nerve” value [3] was “the size of the staining patch was decreased”, the “localization of VEGF-positive spots in the retina” value [3] was “limited mainly to the GCL to the IPL” and the “outer retinal folds and rosette-like structures in the central retina” value [4] was “No abnormal structure like this was observed”. For the same substance, the “rows and thickness of INL in the central retina” value [4] was “no detectable effect”, the “rows and thickness of ONL, central and peripheral retina” value ([4]; vs 22-24 m/Veh) was “prevented these pathological changes more effectively in the central retina” and the “rows of INL in the peripheral retina” value ([4]; vs 22-24 m/Veh) was “showed a clear trend to rescue the number of rows”. For the same substance, the “tau and Aβ pathologies in the retina (R134d, PHF-1, AT8, 4G8, Aβ immunofluorescence)” value [5] was “prevented the trend in the increase in tau and Aβ pathologies”, the “distribution of GFAP-positive staining in the retina” value [6] was “limited to the NFL and GCL” and the “area percentage of GFAP in the peripheral retina, changes between groups” value ([6]; n = 3-6 mice, similar trend, large standard error) was “did not reach statistical significance”. The “area percentage of GFAP from the NFL to the ONL in the central retina” value ([6]; n = 5-6 mice, vs 3xTg-21 m/Veh) was “reduced by P021 treatment to the levels in WT-3 m/Veh and 3xTg-3 m/Veh mice”, the “stability in artificial gastric juice” value ([7]; 30 min) was ~ 90% and the “stability in artificial intestinal juice” value ([7]; 120 min) was > 95%. The “localization of Iba-1-positive microglial cells in the retina” value ([8]; especially central retina) was “no staining was found from the ONL to the OS”, the “relative Iba-1 immunostaining from the NFL to the OS, central and peripheral retinas” value ([8]; n = 6-7 rats, vs 22-24 m/Veh) was “dramatically reduced” and the “GFAP staining in central and peripheral retinas” value [9] was “reduced very much”. The “tau and Aβ pathologies in the retina (R134d, PHF-1, AT8, 4G8, Aβ immunofluorescence)” value [10] was “prevented the trend in the increase in tau and Aβ pathologies”, the “general physical state / side effects” value [11] was “did not observe any worsening in general physical state” and the “thickening of the BM” value ([12]; H & E) was “no BM thickening”. For the same substance, the “number of deposits between the RPE and Cho” value ([12]; auto-fluorescence λex = 543, n = 5 mice, vs 3xTg-21 m/Veh) was “significantly reduced”, the “extension of ONL nuclei across the OPL or into the INL, central retina” value ([13]; H & E) was “this pathology was prevented” and the “prevention of changes in rows and thickness of INL in the peripheral retina” value ([13]; vs 3xTg-21 m/Veh, H & E) was “did not reach significance”. For the same substance, the “rows and thickness of INL in the central retina” value ([13]; vs 3xTg-21 m/Veh, H & E) was “prevented these changes”, the “rows and thickness of ONL in the central retina” value ([13]; vs 3xTg-21 m/Veh, H & E) was “these changes in the central retina were prevented” and the “rows and thickness of ONL in the peripheral retina” value ([13]; vs 3xTg-21 m/Veh, H & E) was “showed a trend to rescue these changes”. For the same substance, the “rescue of INL thickness in the central retina” value ([13]; vs 3xTg-21 m/Veh, obvious trend) was “did not reach statistical significance”, the “arrangement of apical microvilli (AM) in RPE” value ([14]; H & E) was “showed improvement in the arrangement of AM” and the “vacuolation and atrophy of RPE” value ([14]; H & E) was “no apparent abnormalities were observed”. The “lipofuscin granules and deposition number between RPE and Cho” value ([14]; auto-fluorescence λex = 543, n = 7 rats, vs 22-24 m/Veh) was “markedly decreased”.
